Test results taken from US12686687B2, “Compounds and uses thereof” (Foghorn Therapeutics Inc., priority 2019, dated 2026).
Read-outs that look alike come from different tables or passages of the source.

How the values were obtained:
[1] = molecular target: T1, BRD9 bromodomain (Flag-BRD9 P133-K239; Swiss Prot Q9H8M2) (Homo sapiens, UniProt Q9H8M2); assay: BRD9 bromodomain TR-FRET competition binding assay; details: 3 nM Flag-BRD9, 3.75 nM biotinylated ligand, 90 minutes at room temperature
T1 construct: His-Flag-BRD9 (P133-K239); Swiss Prot Q9H8M2; His6 with TEV site (mgsshhhhhhenlyfq/) (N, cleaved yes); made in house
T1 sequence (Q9H8M2 133-239): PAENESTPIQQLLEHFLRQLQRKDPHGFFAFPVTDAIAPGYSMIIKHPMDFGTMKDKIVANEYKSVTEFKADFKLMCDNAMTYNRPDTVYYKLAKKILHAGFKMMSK
Protocol: Cleaved His tag was removed by purification. […] DMSO or 3-fold serially diluted compounds were then added to the Proxiplate followed by addition of Flag-BRD9. After a 10-minute incubation at room temperature, Eu-W1024 anti-FLAG (PerkinElmer, AD0273) was added.

[2] = molecular target: T2, Nanoluciferase-BRD9 fusion protein (3×FLAG-NLuc-BRD9) in SYO-1 cells (Homo sapiens, UniProt Q9H8M2); assay: SYO1 BRD9 NanoLuc degradation assay; assay type: cell-based; details: 1 μM top dose, read-out: SYO1 BRD9-NanoLuc degradation IC50
T2 construct: expressed in transfected cells; host or cells: SYO-1
T2 sequence (Q9H8M2 1-597): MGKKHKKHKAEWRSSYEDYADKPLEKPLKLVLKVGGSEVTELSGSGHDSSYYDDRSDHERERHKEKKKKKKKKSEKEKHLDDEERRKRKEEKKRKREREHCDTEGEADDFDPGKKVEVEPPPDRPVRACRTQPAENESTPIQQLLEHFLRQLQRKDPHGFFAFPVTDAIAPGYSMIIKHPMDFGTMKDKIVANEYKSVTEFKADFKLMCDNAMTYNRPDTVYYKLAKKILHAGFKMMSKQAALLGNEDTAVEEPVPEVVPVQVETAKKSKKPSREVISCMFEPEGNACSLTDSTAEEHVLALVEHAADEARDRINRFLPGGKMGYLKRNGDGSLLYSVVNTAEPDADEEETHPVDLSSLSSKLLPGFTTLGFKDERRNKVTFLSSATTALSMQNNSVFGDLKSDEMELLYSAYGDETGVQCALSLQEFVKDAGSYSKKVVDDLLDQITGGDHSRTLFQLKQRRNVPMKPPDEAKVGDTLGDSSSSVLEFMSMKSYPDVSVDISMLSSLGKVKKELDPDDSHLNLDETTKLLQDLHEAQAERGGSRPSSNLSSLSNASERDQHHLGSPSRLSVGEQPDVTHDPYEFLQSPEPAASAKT
Summary of the method: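 Stable SYO-1 line expressing 3×FLAG-NLuc-BRD9 was seeded at 8000 cells/well, then treated next day for 6 h with 10-point 3-fold dilutions (top 1 μM final). Nano-Glo luminescence was read. % inhibition was normalised to DMSO (high control) and 1 μM reference BRD9 degrader (low control).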

[3] = Table 6B, SYO-1 cells expressing 3×FLAG-NLuc-BRD9, 6 hours incubation
[4] = Table 6C, SYO-1 cells expressing 3×FLAG-NLuc-BRD9, 6 hours incubation

Question: With `Cn1cc(-c2cccc(C(F)(F)F)c2)c2sc(C(=N)NC3CCS(=O)(=O)NC3)cc2c1=O` (centres unmarked) [Compound B1, N-(1,1-dioxo-1λ6,2-thiazinan-4-yl)-5-methyl-4-oxo-7-[3-(trifluoromethyl)phenyl]thieno[3,2-c]pyridine-2-carboximidamide] as the compound, how does the IC50 [1] read?
Answer: > 10 nM

Question: Which IC50 [1] does the source give for `COc1cc(-c2cn(C)c(=O)c3cc(C(=O)NC4CCN(CCCCCOc5cccc6c5C(=O)N(C5CCC(=O)NC5=O)C6=O)CC4(F)F)sc23)cc(OC)c1CN(C)C` (centres unmarked) [Compound D13, 7-[4-[(dimethylamino)methyl]-3,5-dimethoxyphenyl]-N-[1-(5-[[2-(2,6-dioxopiperidin-3-yl)-1,3-dioxoisoindol-4-yl]oxy]pentyl)-3,3-difluoropiperidin-4-yl]-5-methyl-4-oxothieno[3,2-c]pyridine-2-carboxamide] here?
Answer: < 10 nM

Question: And the DC50 ([2]; 6 hours treatment)?
Answer: < 10 nM

Question: What does the source list for `COc1cc(-c2cn(C)c(=O)c3cc(NC(=O)C4CCN(C)CC4)sc23)cc(OC)c1CN(C)CC(=O)NCCOCCOc1cccc2c1C(=O)N(C1CCC(=O)NC1=O)C2=O` (centres unmarked) [Compound D1, N-[7-(4-[[([[2-(2-[[2-(2,6-dioxopiperidin-3-yl)-1,3-dioxoisoindol-4-yl]oxy]ethoxy)ethyl]carbamoyl]methyl)(methyl)amino]methyl]-3,5-dimethoxyphenyl)-5-methyl-4-oxothieno[3,2-c]pyridin-2-yl]-1-methylpiperidine-4-carboxamide]?
Answer: IC50 [1]: > 100 nM; DC50 ([2]; 6 hours treatment): > 1000 nM

Question: For `COc1cc(-c2cn(C)c(=O)c3cc(C(=N)NC4CCS(=O)(=O)CC4)sc23)ccc1OCC(=O)NCCCCCCCCNc1cccc2c1CN(C1CCC(=O)NC1=O)C2=O` (centres unmarked) [Compound D2, 2-(4-[2-[N-(1,1-dioxo-A6-thian-4-yl)carbamimidoyl]-5-methyl-4-oxo-4H,5H-thieno[3,2-c]pyridin-7-yl]-2-methoxyphenoxy)-N-(8-[[2-(2,6-dioxopiperidin-3-yl)-1-oxo-2,3-dihydro-1H-isoindol-4-yl]amino]octyl)acetamide], which IC50 [1] is on record?
Answer: < 10 nM

Question: And the DC50 ([2]; 6 hours treatment)?
Answer: > 10 nM

Question: For `COc1cc(-c2cn(C)c(=O)c3cc(NC(=O)[C@H]4CCCN(C(=O)CCCCOc5cccc6c5C(=O)N(C5CCC(=O)NC5=O)C6=O)C4)sc23)cc(OC)c1CN(C)C` (stereo partly drawn) [Compound D8, (3S)—N-(7-[4-[(dimethylamino)methyl]-3,5-dimethoxyphenyl]-5-methyl-4-oxothieno[3,2-c]pyridin-2-yl)-1-(5-[[2-(2,6-dioxopiperidin-3-yl)-1,3-dioxoisoindol-4-yl]oxy]pentanoyl)piperidine-3-carboxamide], which IC50 [1] is on record?
Answer: > 100 nM

Question: What about the DC50 ([2]; 6 hours treatment) of the same compound?
Answer: > 100 nM

Question: How did the IC50 [1] turn out when `COc1cc(-c2cn(C)c(=O)c3cc(C(=N)NC4CCS(=O)(=O)CC4)sc23)ccc1OCC(=O)O` [Compound B8, 2-(4-[2-[N-(1,1-dioxo-1λ6-thian-4-yl)carbamimidoyl]-5-methyl-4-oxo-4H,5H-thieno[3,2-c]pyridin-7-yl]-2-methoxyphenoxy)acetic Acid Trifluoroacetic Acid] was run?
Answer: > 10 nM

Question: Which IC50 [1] does the source give for `COc1cc(-c2cn(C)c(=O)c3cc(C(=O)N4CCN(C)CC4)sc23)cc(OC)c1CN(C)C` [Compound B7, 7-[4-[(dimethylamino)methyl]-3,5-dimethoxyphenyl]-5-methyl-2-(4-methylpiperazine-1-carbonyl)-4H,5H-thieno[3,2-c]pyridin-4-one] here?
Answer: > 100 nM

Question: Which IC50 [1] does the source give for `COc1cc(-c2cn(C)c(=O)c3cc(C(=O)NC4CCC(=O)NC4)sc23)cc(OC)c1CN(C)C` (centres unmarked) [Compound B5, 7-[4-[(dimethylamino)methyl]-3,5-dimethoxyphenyl]-5-methyl-4-oxo-N-(6-oxopiperidin-3-yl)-4H,5H-thieno[3,2-c]pyridine-2-carboxamide] here?
Answer: < 10 nM

Question: How did the IC50 [1] turn out when `COc1ccc(-c2cn(C)c(=O)c3cc(-c4ncc[nH]4)sc23)cc1OC` [Compound B9, 7-(3,4-dimethoxyphenyl)-2-(1H-imidazol-2-yl)-5-methyl-4H,5H-thieno[3,2-c]pyridine-4-one] was run?
Answer: > 10 nM

Question: Which IC50 [1] does the source give for `COc1cc(-c2cn(C)c(=O)c3cc(NC(=O)C4CN(C)CCO4)sc23)cc(OC)c1CN(C)C` (centres unmarked) [Compound B4, N-(7-[4-[(Dimethylamino)methyl]-3,5-dimethoxyphenyl]-5-methyl-4-oxo-4H,5H-thieno[3,2-c]pyridin-2-yl)-4-methylmorpholine-2-carboxamide Formic Acid] here?
Answer: > 10 nM

Question: Which IC50 [1] does the source give for `COc1ccc(-c2cn(C)c(=O)c3ccsc23)cc1OC` [Compound B10, 7-(3,4-dimethoxyphenyl)-5-methyl-4H,5H-thieno[3,2-c]pyridin-4-one] here?
Answer: > 10 nM

Question: For `COc1cc(-c2cn(C)c(=O)c3cc(C(=O)NC4CCN(C)CC4)sc23)cc(OC)c1CN(C)C` [Compound B6, 7-[4-[(dimethylamino)methyl]-3,5-dimethoxyphenyl]-5-methyl-N-(1-methylpiperidin-4-yl)-4-oxo-4H,5H-thieno[3,2-c]pyridine-2-carboxamide], which IC50 [1] is on record?
Answer: < 10 nM

Question: How did the IC50 [1] turn out when `COc1cc(-c2cn(C)c(=O)c3cc(-c4nc5ccncc5[nH]4)sc23)cc(OC)c1CN(C)C` [Compound B2, 7-[4-[(dimethylamino)methyl]-3,5-dimethoxyphenyl]-2-[3H-imidazo[4,5-c]pyridin-2-yl]-5-methylthieno[3,2-c]pyridin-4-one] was run?
Answer: < 10 nM

Question: Which IC50 [1] does the source give for `COc1cc(-c2cn(C)c(=O)c3cc(NC(=O)C4CCN(C)CC4)sc23)cc(OC)c1CN(C)C` [Compound B3, N-(7-[4-[(dimethylamino)methyl]-3,5-dimethoxyphenyl]-5-methyl-4-oxo-4H,5H-thieno[3,2-c]pyridin-2-yl)-1-methylpiperidine-4-carboxamide] here?
Answer: > 10 nM

Question: `COc1cc(-c2cn(C)c(=O)c3cc(C(=O)NC4CCN(C)CC4(F)F)sc23)cc(OC)c1CN1CCC(CCN2CCN(c3ccc4c(c3)C(=O)N(C3CCC(=O)NC3=O)C4=O)CC2)CC1` (centres unmarked) [Compound D26] was tested. Which DC50 [2, 3] did it give?
Answer: < 10 nM

Question: `COc1cc(-c2cn(C)c(=O)c3cc(C(=O)NC4CCN(C5CCN(c6ccc7c(c6)C(=O)N(C6CCC(=O)NC6=O)C7)CC5)CC4(F)F)sc23)cc(OC)c1CN(C)C` (centres unmarked) [Compound D24] was tested. Which DC50 [2, 3] did it give?
Answer: < 10 nM

Question: For `COc1cc(-c2cn(C)c(=O)c3cc(C(=O)N[C@H]4CCN(C5CCN(c6ccc7c(c6)C(=O)N([C@@H]6CCC(=O)NC6=O)C7)CC5)CC4(F)F)sc23)cc(OC)c1CN(C)C` [Compound D140], which DC50 [2, 4] is on record?
Answer: < 10 nM

Question: `COc1cc(-c2cn(C)c(=O)c3c(C)c(C(=O)NC4CCN(C5CCN(c6ccc7c(c6)C(=O)N(C6CCC(=O)NC6=O)C7)CC5)CC4(F)F)sc23)cc(OC)c1CN(C)C` (centres unmarked) [Compound D148] was tested. Which DC50 [2, 4] did it give?
Answer: > 1000 nM

Question: `COc1cc(-c2cn(C)c(=O)c3cc(C(=O)NC4CCN(C5CN(c6ccc7c(c6)C(=O)N(C6CCC(=O)NC6=O)C7=O)C5)CC4(F)F)sc23)cc(OC)c1CN(C)C` (centres unmarked) [Compound D191] was tested. Which DC50 [2, 4] did it give?
Answer: < 10 nM

Question: For `COc1cc(-c2cn(C)c(=O)c3cscc23)cc(OC)c1CN1CCC2(CC1)CN(c1ccc3c(c1)C(=O)N(C1CCC(=O)NC1=O)C3=O)C2` (centres unmarked) [Compound D208], which DC50 [2, 4] is on record?
Answer: < 10 nM

Question: Which DC50 [2, 3] does the source give for `COc1cc(-c2cn(C)c(=O)c3cc(C(=O)NC4CCN(C)CC4(F)F)sc23)cc(OC)c1CN1CCN(c2ccc3c(c2)CN(C2CCC(=O)NC2=O)C3=O)CC1` (centres unmarked) [Compound D22] here?
Answer: < 10 nM

Question: How did the DC50 [2, 3] turn out when `COc1cc(-c2cn(C)c(=O)c3cc(C(=O)NC4CCN(CCCCCOc5ccc6c(c5)C(=O)N(C5CCC(=O)NC5=O)C6=O)CC4F)sc23)cc(OC)c1CN(C)C` (centres unmarked) [Compound D85] was run?
Answer: < 10 nM

Question: How did the DC50 [2, 3] turn out when `COc1cc(-c2cn(C)c(=O)c3scnc23)cc(OC)c1CN1CC(CN2CCC3(CC2)CN(c2ccc4c(c2)C(=O)N(C2CCC(=O)NC2=O)C4)C3)C1` (centres unmarked) [Compound D20] was run?
Answer: < 10 nM

Question: `COc1cc(-c2cn(C)c(=O)c3cc(C(=O)NC4CCN(CCCCCOc5ccc6c(c5)C(=O)N(C5CCC(=O)NC5=O)C6)CC4(F)F)sc23)cc(OC)c1CN(C)C` (centres unmarked) [Compound D159] was tested. Which DC50 [2, 4] did it give?
Answer: < 10 nM

Question: With `COc1cc(-c2cn(C)c(=O)c3cnsc23)cc(OC)c1CN1CCC2(CC1)CN(c1ccc3c(c1)C(=O)N(C1CCC(=O)NC1=O)C3=O)C2` (centres unmarked) [Compound D209] as the compound, how does the DC50 [2, 4] read?
Answer: < 10 nM
